pKi: −log10 of the molar value.
Legend:
[1] = molecular target: T1, recombinant human oxytocin receptors (Homo sapiens, UniProt P30559); assay: Oxytocin receptor binding assay (3H-oxytocin, HEK-293 cells); settings: selectivity quotient, human OT vs human V1b
T1 construct: expressed in transfected cells; host or cells: HEK-293, transient expression; lysed and homogenized cells
T1 sequence (P30559 1-389): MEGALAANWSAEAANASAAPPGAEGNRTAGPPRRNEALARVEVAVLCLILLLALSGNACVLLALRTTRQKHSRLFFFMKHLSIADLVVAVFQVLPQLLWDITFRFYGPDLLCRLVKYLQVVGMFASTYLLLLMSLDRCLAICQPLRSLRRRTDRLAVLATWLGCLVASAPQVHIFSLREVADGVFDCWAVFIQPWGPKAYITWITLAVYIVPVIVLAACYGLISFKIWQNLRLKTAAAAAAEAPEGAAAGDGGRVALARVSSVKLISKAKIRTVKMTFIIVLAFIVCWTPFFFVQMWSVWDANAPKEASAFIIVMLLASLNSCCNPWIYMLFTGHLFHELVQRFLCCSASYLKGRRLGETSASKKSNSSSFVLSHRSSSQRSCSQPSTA
Method: The residue was taken up in ice-cold lysis buffer (50 mM Tris-HCl, 10% glycerol, pH 7.4 and Roche complete protease inhibitor) and subjected to an osmotic shock at 4° C. for 20 minutes. The lyzed cells were then centrifuged at 750×g at 4° C. for 20 minutes, the residue was taken up in incubation buffer, and aliquots of 10^7 cells/ml were prepared. The aliquots were frozen at −80° C. until used.
On the day of the experiment, the cells were thawed, diluted with incubation buffer and homogenized using a Multipette Combitip (Eppendorf, Hamburg). […] Triplicate determinations were set up. Bound and free radioligand were separated by filtration under vacuum with Whatman GF/B glass fiber filters with the aid of a Skatron cell harvester 7000. The bound radioactivity was determined by liquid scintillation measurement in a Tricarb Beta counter, model 2000 or 2200CA (Packard).

[2] = molecular target: human vasopressin V1a receptor (Homo sapiens, UniProt P37288); assay: Vasopressin V1a receptor binding assay (125I-AVP displacement, CHO-K1 membranes); settings: selectivity quotient, human V1a vs human V1b
[3] = molecular target: T2, human vasopressin V1b receptor (Homo sapiens, UniProt P47901); assay: Vasopressin V1b receptor binding assay (3H-AVP displacement, CHO-K1 membranes)
T2 construct: expressed in transfected cells; host or cells: CHO-K1 (cell line hV1b_3H2_CHO), membranes
T2 sequence (P47901 1-424): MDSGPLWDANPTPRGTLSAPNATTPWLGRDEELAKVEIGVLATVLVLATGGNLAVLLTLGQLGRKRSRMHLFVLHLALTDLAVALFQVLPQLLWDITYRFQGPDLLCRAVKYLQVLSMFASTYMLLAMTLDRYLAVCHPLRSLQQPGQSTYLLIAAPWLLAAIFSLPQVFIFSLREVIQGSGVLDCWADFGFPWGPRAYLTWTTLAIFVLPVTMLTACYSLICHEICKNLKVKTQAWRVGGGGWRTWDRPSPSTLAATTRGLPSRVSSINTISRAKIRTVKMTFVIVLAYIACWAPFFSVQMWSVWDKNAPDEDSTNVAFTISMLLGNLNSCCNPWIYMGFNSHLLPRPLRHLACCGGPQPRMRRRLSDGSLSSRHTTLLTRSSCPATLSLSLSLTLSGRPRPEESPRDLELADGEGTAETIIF
Method: 1. Vasopressin V1b Receptor Binding Assay:
The substance concentration was further diluted 1:5 in the assay mixture (2% DMSO in the mixture).
All determinations were carried out as triplicate determinations.

Chain of human vasopressin V1a receptor (P37288 whole entry): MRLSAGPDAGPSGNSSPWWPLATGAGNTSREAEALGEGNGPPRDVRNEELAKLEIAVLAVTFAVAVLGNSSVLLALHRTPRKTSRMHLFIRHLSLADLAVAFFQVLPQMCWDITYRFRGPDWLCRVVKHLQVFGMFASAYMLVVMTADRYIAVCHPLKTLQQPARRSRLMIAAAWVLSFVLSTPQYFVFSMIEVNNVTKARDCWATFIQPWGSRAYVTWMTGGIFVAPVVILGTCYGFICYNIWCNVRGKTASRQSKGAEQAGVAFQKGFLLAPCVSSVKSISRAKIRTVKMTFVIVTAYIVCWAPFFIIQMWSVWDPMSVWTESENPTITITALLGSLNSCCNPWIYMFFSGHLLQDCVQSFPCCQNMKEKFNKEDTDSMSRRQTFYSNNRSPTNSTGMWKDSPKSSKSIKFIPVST

| Structure (SMILES) | Ki(h-OT)/Ki(h-V1b)* [1] | Ki(h-V1a)/Ki(h-V1b)* [2] | pKi [3] |
| --- | --- | --- | --- |
| CCOc1ncccc1C1(OC(=O)c2ccc(N3CCN(C)CC3)cc2)C(=O)N(S(=O)(=O)c2ccc(OC)cc2)c2ccc(C#N)cc21 (stereo not drawn) [Example 2, 5-Cyano-3-(2-ethoxypyridin-3-yl)-1-(4-methoxyphenylsulfonyl)-2-oxo-2,3-dihydro-1H-indol-3-yl-4-(4-methylpiperazin-1-yl)benzoate] | ++ (25-75) | +++ (>75) | 8.00 to 9.00 |
| CCOc1ncccc1C1(OC(=O)c2ccc(N3CCN(C)CC3)cc2)C(=O)N(S(=O)(=O)c2ccc(OC)cc2OC)c2ccc(C#N)cc21 (stereo not drawn) [Example 3, 5-Cyano-1-(2,4-dimethoxyphenylsulfonyl)-3-(2-ethoxypyridin-3-yl)-2-oxo-2,3-dihydro-1H-indol-3-yl 4-(4-methylpiperazin-1-yl)benzoate] | + (10-<25) | +++ (>75) | 8.00 to 9.00 |
| CCOc1ncccc1C1(NC(=O)c2ccc(N3CCN(C)CC3)cc2)C(=O)N(S(=O)(=O)c2ccc(OC)cc2)c2ccc(C#N)cc21 (stereo not drawn) [Example 4, N-[5-Cyano-3-(2-ethoxypyridin-3-yl)-1-(4-methoxyphenylsulfonyl)-2-oxo-2,3-dihydro-1H-indol-3-yl]-4-(4-methylpiperazin-1-yl)benzamide] | ++ (25-75) | +++ (>75) | 8.00 to 9.00 |
| CCOc1ncccc1C1(NC(=O)c2ccc(N3CCN(CC)CC3)cc2)C(=O)N(S(=O)(=O)c2ccc(OC)cc2)c2ccc(C#N)cc21 (stereo not drawn) [Example 5, N-[5-Cyano-3-(2-ethoxypyridin-3-yl)-1-(4-methoxyphenylsulfonyl)-2-oxo-2,3-dihydro-1H-indol-3-yl]-4-(4-ethylpiperazin-1-yl)benzamide] | +++ (>75) | +++ (>75) | 8.00 to 9.00 |
| CCOc1ncccc1C1(NC(=O)c2ccc(N3CCN(C)CC3)cc2)C(=O)N(S(=O)(=O)c2ccc(OC)cc2OC)c2ccc(C#N)cc21 (stereo not drawn) [Example 6, N-[5-Cyano-1-(2,4-dimethoxyphenylsulfonyl)-3-(2-ethoxypyridin-3-yl)-2-oxo-2,3-dihydro-1H-indol-3-yl]-4-(4-methylpiperazin-1-yl)benzamide] | ++ (25-75) | +++ (>75) | 8.00 to 9.00 |
| CCOc1ncccc1C1(NC(=O)c2ccc(N3CCN(CC)CC3)cc2)C(=O)N(S(=O)(=O)c2ccc(OC)cc2OC)c2ccc(C#N)cc21 (stereo not drawn) [Example 7, N-[5-Cyano-1-(2,4-dimethoxyphenylsulfonyl)-3-(2-ethoxypyridin-3-yl)-2-oxo-2,3-dihydro-1H-indol-3-yl]-4-(4-ethylpiperazin-1-yl)benzamide] | ++ (25-75) | +++ (>75) | 8.00 to 9.00 |
| CCOc1ncccc1C1(NCc2ccc(N3CCN(C)CC3)cc2)C(=O)N(S(=O)(=O)c2ccc(OC)cc2)c2cc(Cl)c(F)cc21 (stereo not drawn) [Example 13, 6-Chloro-3-(2-ethoxypyridin-3-yl)-5-fluoro-1-(4-methoxyphenylsulfonyl)-3-[4-(4-methylpiperazin-1-yl)benzylamino]-1,3-dihydroindol-2-one] | ++ (25-75) | + (10-<25) | 7.00 to 8.00 |
| CCOc1ncccc1C1(NCc2ccc(N3CCN(C)CC3)cc2)C(=O)N(S(=O)(=O)c2ccc(OC)cc2)c2cc(F)c(F)cc21 (stereo not drawn) [Example 14, 5,6-Difluoro-3-(2-ethoxypyridin-3-yl)-1-(4-methoxyphenylsulfonyl)-3-[4-(4-methylpiperazin-1-yl)benzylamino]-1,3-dihydroindol-2-one] | ++ (25-75) | + (10-<25) | 8.00 to 9.00 |
| CCOc1ncccc1C1(NCc2ccc(N3CCN(C)CC3)cc2)C(=O)N(S(=O)(=O)c2ccc(OC)cc2)c2ccc(F)cc21 (stereo not drawn) [Example 15, 3-(2-Ethoxypyridin-3-yl)-5-fluoro-1-(4-methoxyphenylsulfonyl)-3-[4-(4-methylpiperazin-1-yl)benzylamino]-1,3-dihydroindol-2-one] | +++ (>75) | ++ (25-75) | 8.00 to 9.00 |

Source: patent US8629148B2, “Substituted oxindole-derivatives and the use thereof for the treatment of vasopressin-dependent illnesses” (AbbVie Deutschland GmbH & Co. KG, priority 2007, dated 2014)
